Assay results published in patent US5352667A, “Non-peptidic surrogates of the Arg-Gly-Asp sequence and pharmaceutical compositions comprising them” (priority 1991, dated 1994).
“Also recorded” adds a separate entry of the source.

Tests used:
[1] = test system: CD4^+ T cell adhesion to FN; assay: Inhibition of activated CD4+ T cell adhesion to FN; type: cell-based, human
Method: To examine the adhesive properties of the T cells, 1 μg/50 μl/well of either fibronectin (FN) (Sigma), the 120 kD cell attachment fragment of FN (Telios Pharm. Inc. San Diego, CA), or laminin (LN) (Sigma), were added to 96-flat bottom microtiter-wells for 12 h. Unbound proteins were then washed away and remaining binding sites were blocked with 0.1% bovine serum albumin (BSA) added to the wells for 2 h and washed. CD4+T cells were purified from peripheral blood mononuclear leukocytes obtained from healthy human donors. The mononuclear cells were isolated using a Ficoll gradient, washed and incubated in RPMI supplemented with 10% fetal calf serum (FCS) and antibiotics in petri dishes at 37° C. humidified CO2 incubator. After 2 h, the non-adherent cells were isolated and applied on nylon-wool columns (1.5 h). CD4^+ T cells were then negatively selected by exposure of the cells to a cocktail of anti-CD8, CD19, and CD14 monoclonal antibodies (mAb) conjugated to magnetic-beads (Advanced Magnetics, MA). Unbound cells were recovered and their phenotype was examined. Purity of the CD4^+ T cells was always greater than 92% as determined by FACScan.
The purified CD4^+ T cells were radioactively labeled with ^51 [Cr](New England Nuclear) in RPMI +20% FCS for 2 h and washed. The cells were counted and seeded (0.2×10^5 cells) on the precoated microtiter wells in the presence or the absence of the various inhibitors. Coating was made either with FN, the 120 kD cell-attachment fragment of FN or with control adhesive protein laminin (LN). The inhibitors were various surrogates according to the invention, other test molecules or mAb. After 30 min incubation (in […] CO2 -- humidified incubator) the T cells were activated by 10 ng/ml phorbol myristate acetate (PMA) and the percent of T cells attached to the protein substrates was measured. Unbound cells were washed away after 20-30 min, the bound cells were lysed and their radioactivity was measured using radioactive counter. The amount of the radioactivity of the cell lysates represent the matrix-adherent cells and percent binding was calculated in comparison to the total radioactivity added to the wells. Activated T cell adhesion to control wells or to wells coated with BSA was always 2-5%; the level of adhesion of the non-activated T cells was always below 5%. Where indicated, 1/200 diluted mAb anti-CD29 (anti-β1 mAb Serotec, GB), or 1/400 diluted anti-VLA5 (the β1α5 FN-integrin receptor) mAb (Telios Pharm. Inc. San Diego), or 0.2 mM of RGD, GRGDSPK or GRGESP peptides (Sigma) were used. […] The results shown in Tables 1A, 1B and 1C represent data obtained from several experiments that produced essentially similar results.
In a second series of experiments, FN was used in the adhesion assay carried out with the RGD surrogates NS-8, NS-11 and NS-15 in comparison to RGDS peptide.
In a third series of experiments, FN was used in the adhesion assay with the surrogates SF-6,5 and NS-11 and compared to the peptide GRGDSP.

[2] = test system: B16-melanoma cells adhesion to FN; assay: Inhibition of B16-melanoma cell adhesion to FN; type: cell-based, murine
[3] = target: T1, platelet GPIIb-IIIa receptor (Homo sapiens, UniProt P05106+P08514); assay: Inhibition of ADP-induced platelet aggregation (platelet rich plasma); type: cell-based
T1 construct: Platelet concentrates were prepared from human whole blood; endogenous in cells; host or cells: human platelets in platelet rich plasma
T1 sequence (P08514 32-887 limits assumed): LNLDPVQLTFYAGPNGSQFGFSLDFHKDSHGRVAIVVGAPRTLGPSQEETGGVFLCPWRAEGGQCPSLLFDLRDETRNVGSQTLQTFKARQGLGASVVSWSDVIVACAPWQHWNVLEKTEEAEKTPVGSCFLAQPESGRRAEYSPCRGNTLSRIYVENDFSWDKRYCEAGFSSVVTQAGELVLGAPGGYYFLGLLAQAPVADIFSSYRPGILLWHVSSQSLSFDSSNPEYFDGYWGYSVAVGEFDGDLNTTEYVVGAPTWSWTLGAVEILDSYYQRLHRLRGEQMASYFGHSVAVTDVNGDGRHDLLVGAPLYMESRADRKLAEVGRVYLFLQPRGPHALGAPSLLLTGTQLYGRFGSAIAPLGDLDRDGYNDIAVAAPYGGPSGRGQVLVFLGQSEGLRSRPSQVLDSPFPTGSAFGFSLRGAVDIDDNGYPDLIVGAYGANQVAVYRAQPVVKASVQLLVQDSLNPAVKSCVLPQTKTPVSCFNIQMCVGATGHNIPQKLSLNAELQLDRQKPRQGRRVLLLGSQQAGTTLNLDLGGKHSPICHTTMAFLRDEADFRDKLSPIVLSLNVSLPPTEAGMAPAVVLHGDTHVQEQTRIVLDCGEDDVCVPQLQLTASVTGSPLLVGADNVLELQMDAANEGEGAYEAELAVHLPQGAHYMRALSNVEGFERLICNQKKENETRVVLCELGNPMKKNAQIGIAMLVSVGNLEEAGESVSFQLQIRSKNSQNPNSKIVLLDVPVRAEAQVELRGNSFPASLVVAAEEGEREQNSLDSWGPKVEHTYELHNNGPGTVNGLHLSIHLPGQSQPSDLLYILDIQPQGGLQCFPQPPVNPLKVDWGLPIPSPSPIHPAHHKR
T1 sequence (P08514 891-1039 limits assumed): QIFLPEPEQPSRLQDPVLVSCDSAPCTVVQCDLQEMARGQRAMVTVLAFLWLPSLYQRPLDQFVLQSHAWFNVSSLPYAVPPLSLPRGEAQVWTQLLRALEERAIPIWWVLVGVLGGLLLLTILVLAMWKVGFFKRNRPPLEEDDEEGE
T1 sequence (P05106 27-788): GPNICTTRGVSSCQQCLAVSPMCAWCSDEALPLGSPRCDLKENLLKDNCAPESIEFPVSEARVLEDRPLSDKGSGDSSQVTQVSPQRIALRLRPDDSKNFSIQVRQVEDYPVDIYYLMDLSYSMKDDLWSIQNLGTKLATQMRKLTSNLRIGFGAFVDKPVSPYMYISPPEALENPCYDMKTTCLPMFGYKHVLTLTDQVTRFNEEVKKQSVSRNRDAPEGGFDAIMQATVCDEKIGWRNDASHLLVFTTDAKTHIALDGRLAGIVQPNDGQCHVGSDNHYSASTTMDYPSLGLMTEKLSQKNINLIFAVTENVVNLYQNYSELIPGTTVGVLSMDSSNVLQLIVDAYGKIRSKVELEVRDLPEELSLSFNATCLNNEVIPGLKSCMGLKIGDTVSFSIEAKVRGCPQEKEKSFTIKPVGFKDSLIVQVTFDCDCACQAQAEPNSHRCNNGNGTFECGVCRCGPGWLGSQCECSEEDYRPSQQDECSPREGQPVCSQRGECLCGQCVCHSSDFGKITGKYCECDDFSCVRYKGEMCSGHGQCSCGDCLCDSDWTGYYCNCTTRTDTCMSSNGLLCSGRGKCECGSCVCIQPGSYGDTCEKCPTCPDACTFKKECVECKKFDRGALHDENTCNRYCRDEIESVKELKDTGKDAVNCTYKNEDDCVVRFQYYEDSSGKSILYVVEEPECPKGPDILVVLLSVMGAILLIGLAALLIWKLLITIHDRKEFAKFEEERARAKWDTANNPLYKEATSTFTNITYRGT
Method: To investigate the inhibitory role of the RGD analogues on adhesion, the platelet GPIIb-IIIa receptor which mediates platelet aggregation upon activation was used as a model.
Platelet concentrates were prepared from human whole blood in 10% adenine-citrate-dextrose in Fenwall bags (Baxter Travenol, Israel) followed by standard AABB protocol. Platelet rich plasma was prepared by centrifugation (2500 rpm for 5 min). Samples of platelets were counted in a Minos AST Cell Counter (Levoiselle, France). Cell aggregation was induced by […] and monitored at […] in a 4-channel Aggregometer (Bio-Data, Hatboro, Pa.). To evaluate the effect of the various RGD peptides and the peptide analogues, the platelet rich plasma was pre-incubated with the various inhibitors for 10 min at 37° C. with 10μsolutions followed by the induction of aggregation.
To examine the specificity of the inhibitory effect of the RGD-analogues on platelet aggregation, the cells were treated with various peptidic (RGD and GRGDSP) and non-peptidic (SF-6,6, SF-6,5 and AC-15) RGD analogues used at a fixed sub-saturating concentration of 0.5 mM.
An in vitro assay as described in Example 17 was carried out with the compound NS-11 to examine its ability to interfere with platelet aggregation, and compared it to the SF-6,5 surrogate.
Platelet rich plasma (PRP) was prepared from acid/citrate/dextrose anti-coagulated fresh human blood by differential centrifugation. Platelet aggregation was induced by […] and monitored at 695 nm by a 4-channel Aggregometer (Bio-Data, PA). To evaluate the effect of the RGDS peptide and the NS-8, NS-11 and NS-15 analogs, the PRP was preincubated with the inhibitors for 10 minutes at 37° C., prior to the induction of aggregation. […] In fact, 50% inhibition of platelet aggregation was achieved using a 30-fold lower concentration of NS-11 than that of RGDS.

trypsin = assay: Treatment with trypsin (HPLC monitoring of hydrolysis); type: in vitro ADME; settings: 0.25% trypsin, 37° C., HPLC at 220 nm, aliquots 5, 30, 60 min
Method: Compound SF-6,5 and the GRGDS peptide (50 μg in 100 μl PBS) were incubated at 37° C. and exposed to 0.25% trypsin (Gibco; 50μl in modified Puck's buffer). Aliquots were taken after 5, 30 and 60 min and monitored by HPLC at 220 nm.

[4] = test system: tumor cell-induced metastases; assay: Inhibition of tumor cell-induced metastases in C57BL/6 mice; type: in vivo; settings: i.v. daily, 25μg of SF-6,5 per mouse, after induction of metastasis
[5] = test system: BHK cells and chick embryo fibroblasts; settings: Yamada and Kennedy, 1987; cited from earlier work

Question: With `N=C(N)NCCCC(=O)N1CCCC(C(=O)NCCC(=O)O)C1` (stereo not shown) [NS-11] as the compound, how does the “% Adhesion of activated CD4^+ T cell to FN: (% inhibition)” value ([1]; Conc. 25 μg. ml) read?
Answer: 30%

Question: What about the “% Adhesion of activated CD4^+ T cell to FN: (% inhibition)” value ([1]; Conc. 50 μg. ml) of the same compound?
Answer: 50%

Question: And the “% Adhesion of activated CD4^+ T cell to FN: (% inhibition)” value ([1]; Conc. 100 μg. ml)?
Answer: 85%

Question: And the “Inhibition of cell adhesion relative to RGDS, in words” value ([1]; Table 1B)?
Answer: better inhibitor of cell adhesion than the RGDS peptide

Question: And the “% Inhibition of adhesion” value ([1]; Table 1B, surrogates 0.2 mM, CD4^+ T cell to FN)?
Answer: 71%

Question: And the “% Adhesion of activated CD4^+ to FN” value ([1]; Table 1B, surrogates 0.2 mM, none 65)?
Answer: 19%

Question: What about the “% Adhesion of activated tumor cells to FN: (% inhibition)” value ([2]; Conc. 25 μg. ml) of the same compound?
Answer: 35%

Question: And the “% Adhesion of activated tumor cells to FN: (% inhibition)” value ([2]; Conc. 50 μg. ml)?
Answer: 45%

Question: What about the “% Adhesion of activated tumor cells to FN: (% inhibition)” value ([2]; Conc. 100 μg. ml) of the same compound?
Answer: 70%

Question: And the inhibition at 100 µM ([3]; 0.1 mM, ADP-induced, read-out: Percent inhibition of aggregation)?
Answer: 90%

Question: What about the “Effect on platelet aggregation better than that of the RGD-peptide by” value ([3]; 0.1 mM, same concentration) of the same compound?
Answer: ~20%

Question: And the inhibition at 300 µM ([3]; 0.3 mM, ADP-induced, read-out: Percent inhibition of aggregation)?
Answer: 100%

Question: And the “Inhibition of platelet aggregation, comparison in words” value ([3]; FIG. 5, Example 19)?
Answer: better inhibitor of platelet aggregation than either NS-8 and NS-15; also recorded: found to inhibit platelet aggregation better than the RGD-containing peptide (RGDS)

Question: And the “50% inhibition of platelet aggregation: lower concentration than that of RGDS” value ([3]; FIG. 5, vs RGDS)?
Answer: 30 fold

Question: What about the “Inhibition of platelet aggregation, in words” value ([3]; Table 3) of the same compound?
Answer: better inhibitor of platelet aggregation than SF-6,5; also recorded: significantly better inhibitor than the RGD-containing peptide

Question: For GRGDS [reference compound], which Stability to trypsin (trypsin) is on record?
Answer: completely hydrolized after 5 min

Question: Which “% Adhesion of activated CD4^+ T cell to FN: (% inhibition)” value ([1]; Conc. 25 μg. ml) does the source give for GRGDSP [reference compound] here?
Answer: 40%

Question: And the “% Adhesion of activated CD4^+ T cell to FN: (% inhibition)” value ([1]; Conc. 50 μg. ml)?
Answer: 50%

Question: What about the “% Adhesion of activated CD4^+ T cell to FN: (% inhibition)” value ([1]; Conc. 100 μg. ml) of the same compound?
Answer: 75%

Question: What about the “Inhibition of tumor cell-induced metastases” value [4] of the same compound?
Answer: failed to inhibit metastases

Question: And the “% Adhesion of activated tumor cells to FN: (% inhibition)” value ([2]; Conc. 25 μg. ml)?
Answer: 30%

Question: What about the “% Adhesion of activated tumor cells to FN: (% inhibition)” value ([2]; Conc. 50 μg. ml) of the same compound?
Answer: 40%

Question: And the “% Adhesion of activated tumor cells to FN: (% inhibition)” value ([2]; Conc. 100 μg. ml)?
Answer: 65%

Question: What about the “Percent inhibition of aggregation” value ([3]; 0.1 mM, ADP-induced) of the same compound?
Answer: 75%

Question: For “Ser-Asp-Gly-Arg (SDGR; printed: Ser-Asp-Gly-Arg)”, which “Inhibition of cell spreading, in words” value [5] is on record?
Answer: inhibit spreading of BHK cells and chick embryo fibroblasts on vitronectin-coated substrates and on fibronectin-coated substrates
